Assay results: patent EP0418099B1, “Process of preparation of 10, 11-Methylenedioxy-20 (RS) camptothecin and 10, 11-methylenedioxy-20 (S) - camptothecin analog” (RESEARCH TRIANGLE INSTITUTE, priority 1989, dated 1991)
≈ marks a conversion by molar mass, not a printed value. Counter-ions that a name gives are not always drawn.

Experiments:
9KB = test: In vitro cytotoxicity test 9KB; format: cell-based; settings: 9KB test, compared with camptothecin
Description: (§1) 10,11-MDO-20(S)-CPT is also very potent in the L-1210 leukemia in vivo life prolongation assay. The synthesis of […] is known and described in Wani et al, J. Med. Chem., 29 (11), 2358-2363 (1986) and in U.S. 4,894,456.

9PS = test: In vitro cytotoxicity test 9PS; format: cell-based; settings: 9PS test, compared with camptothecin
Description: as §1

L-1210 leukemia = L-1210 leukemia in vivo life prolongation assay; parameters: species or system mice
Description: as §1

human colorectal tumors = test: Human colon tumor histioculture, inhibition of cell proliferation; format: cell-based; settings: concentration inhibiting by 50% the incorporation of [H]thymidine into DNA, tumors exposed to compounds for 24 hours, then thymidine for 3 days
Description: As used herein, the term "cancer" is synonymous with the terms "malignant tumor" and more generally "tumor". […] See H.L. Davis, Chemotherapy of Large Bowel Cancer, Cancer (Phila.) 50: 2638-2646 (1982); J.R. Neefe and P.S. Schein, Chapter 43: The Management of Disseminated Large-Bowel Cancer in Principals of Cancer Treatment, page 402, ed. S.K. Carter, E. Glatstein and R.B. Livingston, McGraw-Hill Co., 1982; K. Mekhail-Ishak, Cancer Research, 49: 4866-4869 (1989) and P.J. Ferguson and Y.C. Cheng, Cancer Research, 49: 1148-1153 (1989).
Inhibition of tumor cell proliferation was performed in vitro on human colorectal tumors obtained from surgery or biopsy, as described by Vescio et al (Proc. Nat'l. Acad. Sci. USA 84:5029-5033, 1987) with the following modifications: Tumors were cultured 1 day prior to drug addition; tumors were exposed to compounds for 24 hours, washed, and then exposed to ^3[H]thymidine for 3 days.

topoisomerase I = topoisomerase I (Bos taurus, UniProt A0AAA9TV68); settings: relative to camptothecin; cited from earlier work
Chain of topoisomerase I (A0AAA9TV68 entry or part of it): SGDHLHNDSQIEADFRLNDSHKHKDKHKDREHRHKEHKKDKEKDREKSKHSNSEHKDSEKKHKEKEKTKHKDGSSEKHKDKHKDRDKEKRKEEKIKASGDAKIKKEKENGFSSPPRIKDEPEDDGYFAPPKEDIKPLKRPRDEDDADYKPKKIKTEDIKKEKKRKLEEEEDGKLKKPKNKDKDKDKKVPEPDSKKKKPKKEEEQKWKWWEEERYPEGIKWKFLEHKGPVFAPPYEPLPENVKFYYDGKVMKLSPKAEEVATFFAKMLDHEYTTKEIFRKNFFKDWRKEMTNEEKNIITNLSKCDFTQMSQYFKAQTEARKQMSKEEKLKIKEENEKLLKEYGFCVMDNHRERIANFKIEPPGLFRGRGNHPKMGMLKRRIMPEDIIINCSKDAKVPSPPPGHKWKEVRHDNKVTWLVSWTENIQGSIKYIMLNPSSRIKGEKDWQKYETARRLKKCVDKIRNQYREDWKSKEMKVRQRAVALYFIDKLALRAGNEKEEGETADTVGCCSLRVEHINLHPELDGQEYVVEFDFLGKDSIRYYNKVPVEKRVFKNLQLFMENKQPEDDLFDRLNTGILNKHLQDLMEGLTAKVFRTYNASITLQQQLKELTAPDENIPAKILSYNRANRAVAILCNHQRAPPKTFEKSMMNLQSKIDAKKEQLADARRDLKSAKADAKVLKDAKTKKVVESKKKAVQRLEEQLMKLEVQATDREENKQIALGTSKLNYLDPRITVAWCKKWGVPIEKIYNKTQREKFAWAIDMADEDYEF

[1] = Wani et al., J. Med. Chem.; cited from earlier work

## CC[C@@]1(O)C(=O)OCc2c1cc1n(c2=O)Cc2cc3cc4c(cc3nc2-1)OCO4 [Compound 2, 10,11-MDO-20(S)-CPT]
9KB
  ED50: equal to or more potent than camptothecin itself
9PS
  ED50: equal to or more potent than camptothecin itself
L-1210 leukemia
  life prolongation: very potent

## CCC1(O)C(=O)OCc2c1cc1n(c2=O)Cc2cc3cc4c(cc3nc2-1)OCO4 (racemic) [Compound 3, 10,11-MDO-20(RS)-CPT]
Human colorectal tumors
  IC50: ~5 ng/mL (≈ 0.0127 µM)
Topoisomerase I
  potency in the inhibition of topoisomerase I: three to five times the potency of camptothecin

## CCC1(O)C(=O)OCc2c1cc1n(c2=O)Cc2cc3c(N)c4c(cc3nc2-1)OCO4 (racemic) [Compound 4, 9-AMINO-10,11-MDO-20(RS)-CPT]
Human colorectal tumors
  IC50: ~5 ng/mL (≈ 0.0123 µM)

## CCC1(O)C(=O)OCc2c1cc1n(c2=O)Cc2cc3cc(OC)c(OC)cc3nc2-1 (racemic) [10,11-dimethoxy-20(RS)-CPT]
[1]
  activity: totally inactive

## CCC(O)(C(=O)O)c1cc2n(c(=O)c1CO)Cc1cc3cc4c(cc3nc1-2)OCO4 (racemic) [Compound 8, 10,11-MDO-20(RS)-CPT, Na^+ SALT]
Human colorectal tumors
  IC50: ~10 ng/mL
